Entries after “also recorded” stand apart in the source; their conditions may differ.

The values that follow come from US6992078B2, “Plant extracts and alkaloids having antitussive activity” (The Chinese University of Hong Kong, priority 2002, dated 2006).

Test [1] concerns citric acid-induced cough. Description: Citric acid-induced cough in guinea pigs (antitussive activity). The format is in vivo, guinea pig. Conditions: for % Cough Episode (Composed with Vehicle Control): mean ± SEM; for cough episodes (result in words): citric acid-induced cough; for ED50 value (antitussive): comparative study compound A vs codeine (positive control), i.p.; for rank order of antitussive potency: guinea pig citric acid cough model. On the procedure:
In another embodiment, a method is provided for screening for a substance that inhibits coughing activity. For example, a guinea pig is challenged with 0.5 M citric acid. Those producing more than 10 cough episodes during a first citric acid challenge are selected to be sensitive to citric acid induction and are used for further antitussive tests. The number of coughs and the cough latency in the first challenge animal are recorded as the basal level control. After 48 hours of recovery, the sensitive guinea pigs are selected and are randomly divided into different group, and then pretreated with either intraperitoneal or oral administration. For the intraperitoneal administration, the administration can be of a aqueous extract (0.3-3 g/kg), a total alkaloid extract (25-150 mg/kg), an alkaloid, for example compound A (10, 30, 50, and 100 mg/kg), or compounds B, C, D, F, G, H (133 μmol/kg), for 30 min, or of an extract suspected of having antitussive activity. For the oral administration, the administration can be of compound A or E (400 μmol/kg) for 60 min, or of an extract suspected of having antitussive activity. A second citric acid exposure is then conducted. Antitussive activity is evaluated in each treated animal as the reduction of coughs and the increase of cough latency, as compared to the basal level control.
The method previously described by Gallico et al. (1994) was adopted with the following modifications. Unrestrained guinea pigs were placed individually in a hermetically sealed transparent Perspex chamber (25 cm×12 cm×12 cm), and exposed to a nebulized aqueous solution of 0.5 M citric acid for 8 min. An ultrasonic nebulizer was used (OMRON NE-U12, Tokyo, Japan) that produced an aerosol with particles having a mass median diameter of 1˜5 μm. Approximately 0.5 ml of 0.5 M citric acid solution was nebulized per minute. During the exposure, the guinea pigs were continuously monitored by a trained observer. The episodes and latency of coughing in 8 min were detected and counted by the observer. Cough sounds were recorded concurrently and amplified via a microphone placed in the chamber. The sound waves were analyzed by a personal computer by using Cool Edit 2000 software (Syntrillium, Phenix, USA). Therefore, cough counting was performed based on both acoustic data and human observations, and in this manner the reduction or inhibition of coughing (i.e., antitussive activity) was measured.
The guinea pigs were first challenged with 0.5 M citric acid. Those producing more than 10 cough episodes during the first citric acid challenge were selected to be sensitive to citric acid induction and were used for the further antitussive tests. The number of coughs and the cough latency in the first challenge were recorded as the basal level control. After 48 hours of recovery, the sensitive guinea pigs were selected and were randomly divided into different groups with at least four guinea pigs in each group, and then pretreated with intraperitoneal administration of the aqueous extract (0.3-3 g/kg), the total alkaloid extract (25-150 mg/kg), compound A (10, 30, 50, and 100 mg/kg), and compounds B, C, D, F, G, H (133 μmol/kg), for 30 min before the second citric acid exposure. Antitussive activity was evaluated in each treated animal as the reduction of coughs and the increase of cough latency, as compared to the basal level control. Furthermore, the same antitussive test was also performed with oral administration of compounds A and E (400 μmol/kg). In addition, as a positive control, the antitussive activity of codeine (5, 10 and 30 mg/kg, i.p.) was also determined in a parallel study.

Test [2] has as its target T1, μ-opioid receptor (Rattus norvegicus, UniProt P33535).
T1 construct: Novascreen Biosciences (contract assay)
Description: Radiolabeled ligand binding assay, [3H]DAMGO. The conditions noted are these: 10 μM, Rat forebrain. The procedure:
(§1) The representative Stemona alkaloid, compound A, was subjected to the following primary receptor binding assays. The standard radiolabeled ligand binding experiments were performed at the concentration of 10 μM in duplicate by Novascreen Biosciences Crop. (7170 Standard Drive, Hanover, Md. 21076, USA). The tested receptors included all currently well-known receptors involved in producing the antitussive activity, for example, [^3H]Deltorphin (δ1-opioid receptor), [^3H]Naltrindole (δ2-opioid receptor), [^3H]DAMGO (μ-opioid receptor), [^3H]U69593 (κ1-opioid receptor), […] (GABAB receptor), [^3H]8-OH-DPAT (5HT1A receptor), and […] (Dopamine D2-receptor). […] Therefore, the results obtained from both in vivo and in vitro studies confirmed that the antitussive activity of all five effective novel Stemona alkaloids and neotuberostemonine are not involved in opiate receptor pathways.

Test [3] deals with Dopamine D2-receptor. Description: Radiolabeled ligand binding assay, [3H]Glibenclamide. On the set-up: species or system Rat; key to Affinity: ± indicates slight but not significant inhibition on ligand binding. The conditions noted are these: 10 μM, Dopamine D2, Rate striatum. The procedure:
as §1

Test [4] has as its system citric acid-induced cough. Description: Effect of receptor antagonists on the antitussive activity of compound A in vivo. On the set-up: species or system guinea pig. Conditions: mean ± SEM. The procedure: Further studies were conducted for the delineation of the mechanisms of antitussive activity produced by the representative Stemona alkaloid, compound A. Similarly, the sensitive animals were selected after the first citric acid challenge and allowed to recover for 24 hours. During the second challenge, animals were treated with a subcutaneous injection of different antagonists at different times prior to intraperitoneal administration of compound A (50 or 100 mg/kg). The antagonists examined included SCH 50911 (GABAB receptor antagonist) with a 40 min pretreatment at a dose of 10 mg/kg, WAY-100635 (5-HT1A receptor antagonist) with a 60 min pretreatment at a dose of 1 mg/kg, and haloperidol (Dopamine, D2 receptor antagonist) with a 45 min pretreatment at a dose of 1 mg/kg. In addition, naloxone (nonselective opioid receptor antagonist) was administered subcutaneously at a dose of 5 mg/kg at 20 min after intraperitoneal administration of compound A (30 and 100 mg/kg). The effects of these antagonists on the antitussive activity of compound A were assessed by comparison of the changes in cough episodes and cough latency between animal groups administrated with compound A alone and concurrent administration of compound A and each antagonist tested. Furthermore, in a parallel study, the same treatment with naloxone was also conducted in the animals pretreated with intraperitoneal administration of codeine (30 mg/kg) for the positive control.

Test [5] deals with T2, δ1-opioid receptor (Rattus norvegicus, UniProt P33533).
T2 construct: Rat forebrain; tissue Novascreen Biosciences (contract assay); host or cells: rat forebrain
T2 sequence (P33533 whole entry): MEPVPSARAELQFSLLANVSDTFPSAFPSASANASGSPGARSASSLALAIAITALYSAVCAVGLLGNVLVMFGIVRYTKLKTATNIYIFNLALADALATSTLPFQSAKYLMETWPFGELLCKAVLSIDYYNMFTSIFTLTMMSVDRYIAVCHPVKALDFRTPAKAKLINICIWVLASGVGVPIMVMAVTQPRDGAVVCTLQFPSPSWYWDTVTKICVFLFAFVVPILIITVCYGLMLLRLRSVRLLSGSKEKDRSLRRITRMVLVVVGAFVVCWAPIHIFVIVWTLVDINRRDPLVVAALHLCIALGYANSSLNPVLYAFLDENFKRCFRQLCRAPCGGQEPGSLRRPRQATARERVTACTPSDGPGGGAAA
In words: Radiolabeled ligand binding assay, [3H]Deltorphin. The conditions noted are these: 10 μM, Opioid δ1, Rat forebrain, [3H]Deltrophin. On the procedure: as §1

In test [6] the test system is all receptors examined (opioid δ1, δ2, κ, μ, GABAB, 5-HT1A, Dopamine D2). Description: In vitro receptor binding assays, summary over all receptors examined. The conditions noted are these: 10 μM, radiolabeled ligand binding. The procedure: as §1
The target of test [7] is T3, GABAB receptor (Rattus norvegicus, UniProt Q9Z0U4).
T3 construct: Novascreen Biosciences (contract assay)
T3 sequence (Q9Z0U4 17-960 limits assumed): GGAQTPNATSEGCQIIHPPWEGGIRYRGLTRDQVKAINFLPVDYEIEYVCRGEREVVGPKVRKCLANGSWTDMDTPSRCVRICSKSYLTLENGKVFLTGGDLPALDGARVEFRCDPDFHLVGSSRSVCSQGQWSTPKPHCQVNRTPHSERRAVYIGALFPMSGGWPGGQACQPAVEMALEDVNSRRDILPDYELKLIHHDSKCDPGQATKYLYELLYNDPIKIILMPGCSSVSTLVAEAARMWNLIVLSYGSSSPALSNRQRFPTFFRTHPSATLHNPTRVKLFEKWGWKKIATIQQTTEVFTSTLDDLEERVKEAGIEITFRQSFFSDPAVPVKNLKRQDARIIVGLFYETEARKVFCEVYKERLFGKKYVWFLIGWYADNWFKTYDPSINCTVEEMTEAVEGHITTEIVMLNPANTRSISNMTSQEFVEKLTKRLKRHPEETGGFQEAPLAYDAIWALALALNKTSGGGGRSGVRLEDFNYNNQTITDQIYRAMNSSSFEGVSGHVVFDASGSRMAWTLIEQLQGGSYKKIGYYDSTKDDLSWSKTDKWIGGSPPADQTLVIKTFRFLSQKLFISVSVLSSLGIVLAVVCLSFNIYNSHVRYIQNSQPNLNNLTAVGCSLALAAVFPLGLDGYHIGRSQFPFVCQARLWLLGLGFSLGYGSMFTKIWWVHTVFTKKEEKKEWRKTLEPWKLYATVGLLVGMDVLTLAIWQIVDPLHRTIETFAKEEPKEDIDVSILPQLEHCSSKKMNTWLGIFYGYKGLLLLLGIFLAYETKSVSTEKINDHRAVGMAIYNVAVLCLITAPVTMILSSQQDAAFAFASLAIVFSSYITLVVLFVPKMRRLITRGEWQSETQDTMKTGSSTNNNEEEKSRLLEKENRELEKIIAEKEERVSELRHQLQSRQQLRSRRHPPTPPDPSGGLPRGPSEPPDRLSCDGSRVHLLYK
T3 sequence (O88871 41-940 partner): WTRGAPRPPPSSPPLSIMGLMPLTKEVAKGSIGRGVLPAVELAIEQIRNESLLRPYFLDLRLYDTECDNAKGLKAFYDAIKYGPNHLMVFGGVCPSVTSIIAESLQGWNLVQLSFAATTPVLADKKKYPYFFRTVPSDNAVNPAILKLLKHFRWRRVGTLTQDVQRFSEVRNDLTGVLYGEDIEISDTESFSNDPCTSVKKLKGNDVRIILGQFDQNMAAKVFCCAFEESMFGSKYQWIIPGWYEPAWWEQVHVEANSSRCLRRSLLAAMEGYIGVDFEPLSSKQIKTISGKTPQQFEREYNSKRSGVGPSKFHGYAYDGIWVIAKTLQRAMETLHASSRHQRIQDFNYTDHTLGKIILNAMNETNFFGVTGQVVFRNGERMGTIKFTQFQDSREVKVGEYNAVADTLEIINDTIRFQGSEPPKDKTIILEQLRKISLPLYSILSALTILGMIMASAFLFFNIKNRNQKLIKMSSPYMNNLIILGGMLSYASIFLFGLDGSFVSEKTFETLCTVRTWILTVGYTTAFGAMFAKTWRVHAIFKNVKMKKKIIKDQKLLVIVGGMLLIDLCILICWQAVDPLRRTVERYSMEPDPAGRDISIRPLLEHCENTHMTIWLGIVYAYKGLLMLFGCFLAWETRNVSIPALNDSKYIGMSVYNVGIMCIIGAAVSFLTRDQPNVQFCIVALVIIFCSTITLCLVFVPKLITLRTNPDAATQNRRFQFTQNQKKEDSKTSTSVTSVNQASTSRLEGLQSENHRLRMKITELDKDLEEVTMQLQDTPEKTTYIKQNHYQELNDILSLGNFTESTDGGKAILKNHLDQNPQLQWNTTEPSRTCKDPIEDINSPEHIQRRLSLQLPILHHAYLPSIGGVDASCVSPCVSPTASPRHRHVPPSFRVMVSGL
Description: Radiolabeled ligand binding assay, [3H]CGP 54626A. Conditions: 10 μM, Rat cortex. On the procedure: as §1

Test [8] deals with δ2-opioid receptor (Homo sapiens, UniProt P41143). In words: Radiolabeled ligand binding assay, [3H]Naltrindole. Conditions: 10 μM, Opioid δ2, Human recombinant. On the procedure:
as §1

For test [9], the target named is T4, κ1-opioid receptor (Cavia porcellus, UniProt P41144).
T4 construct: Novascreen Biosciences (contract assay)
T4 sequence (P41144 whole entry): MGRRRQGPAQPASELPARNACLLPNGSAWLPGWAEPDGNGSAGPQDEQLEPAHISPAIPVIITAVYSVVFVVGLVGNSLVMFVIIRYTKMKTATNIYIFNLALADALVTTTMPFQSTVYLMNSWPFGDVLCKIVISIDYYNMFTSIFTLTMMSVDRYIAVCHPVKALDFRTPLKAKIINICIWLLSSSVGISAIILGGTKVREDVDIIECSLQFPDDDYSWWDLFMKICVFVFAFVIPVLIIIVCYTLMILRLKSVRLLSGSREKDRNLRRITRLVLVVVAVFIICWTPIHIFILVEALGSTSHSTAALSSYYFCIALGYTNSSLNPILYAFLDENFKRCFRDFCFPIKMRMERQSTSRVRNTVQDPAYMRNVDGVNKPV
In words: Radiolabeled ligand binding assay, [3H]U-69593. Conditions: 10 μM, Opioid κ, Guinea pig cerebellum. The procedure:
as §1

Test [10] concerns 5HT1A receptor. Description: Radiolabeled ligand binding assay, [3H]8-OH-DPAT. Conditions: 10 μM, Bovine hippocampus. On the procedure:
as §1

The mark [11] stands for this setting: po, 400 μmol/kg, 60 min before second citric acid exposure, guinea pig.
Setting [12] is: ip, 133 μmol/kg, 30 min before second citric acid exposure, guinea pig.

Chain of δ2-opioid receptor (P41143 whole entry): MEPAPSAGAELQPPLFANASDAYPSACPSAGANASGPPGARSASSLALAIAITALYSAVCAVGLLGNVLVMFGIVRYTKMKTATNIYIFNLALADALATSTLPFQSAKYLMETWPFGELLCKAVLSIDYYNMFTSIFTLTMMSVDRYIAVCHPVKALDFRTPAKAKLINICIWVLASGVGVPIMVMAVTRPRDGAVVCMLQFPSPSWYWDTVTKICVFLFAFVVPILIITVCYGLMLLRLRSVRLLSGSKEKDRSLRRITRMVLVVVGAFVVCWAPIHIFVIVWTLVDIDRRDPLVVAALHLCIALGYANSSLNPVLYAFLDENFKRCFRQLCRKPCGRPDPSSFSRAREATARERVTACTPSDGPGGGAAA
T1 sequence (P33535 whole entry): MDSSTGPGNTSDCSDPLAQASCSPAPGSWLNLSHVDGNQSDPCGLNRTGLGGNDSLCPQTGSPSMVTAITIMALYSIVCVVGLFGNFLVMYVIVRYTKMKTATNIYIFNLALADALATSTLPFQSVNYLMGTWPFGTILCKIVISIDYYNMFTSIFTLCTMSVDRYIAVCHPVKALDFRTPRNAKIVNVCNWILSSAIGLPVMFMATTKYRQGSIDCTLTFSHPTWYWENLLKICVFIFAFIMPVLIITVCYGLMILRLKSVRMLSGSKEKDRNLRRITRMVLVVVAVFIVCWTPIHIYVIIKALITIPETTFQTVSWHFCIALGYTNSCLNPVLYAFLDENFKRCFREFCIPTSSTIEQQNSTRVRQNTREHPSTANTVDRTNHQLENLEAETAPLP

Turning to `CC[C@H]1[C@H]2OC(=O)[C@@H](C)[C@H]2c2cc([C@H]3C[C@H](C)C(=O)O3)n3c2[C@H]1CCCC3` [Compound E, Epibisdehydrotuberostemonine J], the “% Cough Episode (Composed with Vehicle Control)” value (from here on “% Cough Episode”) in test [1] (setting [11]) was 136.8 ± 25.6 (po) %.

Take `CC[C@@H]1[C@H]2CCCCN3[C@H]2[C@@H](C[C@H]3[C@@H]2C[C@H](C)C(=O)O2)[C@H]2[C@@H]1OC(=O)[C@H]2C` [Compound A, Neotuberostemonine]: the Affinity result is on record as “No” in [2]; “±” in test [3]; “No” in [5]; “No” in test [7]; “No” in test [8]; “No” in test [9]. Moreover, in [10], the Affinity result is reported as “No”. For the same compound, the “% Inhibition of Ligand Binding (average)” value in test [2] (duplicate) came out at 7.37%; in [3] (duplicate), 33.39%; in test [5] (duplicate) it was 5.95%; in test [7] (duplicate) it was 8.06%; in [8] (duplicate) it was 8.32%; in [9] (duplicate), 14.40%. For the same compound, the “% Inhibition of Ligand Binding (average)” value in test [10] (duplicate) is −18.42%. For the same compound, the “% Antitussive Activity of Compound A” value in test [4] (with Haloperidol (Dopamine D2 antagonist) 1 mg/kg sc, 45 min pretreatment, compound A ip 50 or 100 mg/kg) was found to be 115.21 ± 7.05%; in test [4] (with Naloxone (nonselective opioid antagonist) 5 mg/kg sc 20 min after compound A ip (30 and 100 mg/kg)), 86.51 ± 11.57%; in [4] (with SCH 50911 (GABAB antagonist) 10 mg/kg sc, 40 min pretreatment, compound A ip 50 or 100 mg/kg) it was 83.25 ± 16.73%; in [4] (with WAY-100635 (5-HT1A antagonist) 1 mg/kg sc, 60 min pretreatment, compound A ip 50 or 100 mg/kg), 100.50 ± 1.67%. In addition, the “affinity to all receptors examined (in words)” value in test [6] is recorded as “did not show any affinity”. Besides, in test [1] (guinea pig), the “cough episodes (result in words)” value is “inhibited citric acid-induced cough in a dose-dependent manner; also recorded: significantly inhibited cough episodes in a dose-dependent manner”. For the same compound, in test [1] (guinea pig), the “ED50 value (antitussive)” value is reported as “comparable”. Besides, the cough latency entry in [1] (doses of 50 and 100 mg/kg, intraperitoneal, guinea pig) is given as “significantly increased”. The “rank order of antitussive potency” value in test [1] is “A=D>C≈F≈H≈B”. The “% Cough Episode” value in test [1] (setting [12]) is 16.1 ± 7.3%; in test [1] (setting [11]), 21.7 ± 8.9%.

Regarding `COc1ccc2c3c1O[C@H]1[C@@H](O)C=C[C@H]4[C@@H](C2)N(C)CC[C@@]341` [codeine, reference compound], the “ED50 value (antitussive)” value in [1] (guinea pig) is on record as “comparable”.

For the compound `CC[C@@H]1[C@H]2CCCCN3CC[C@@H]([C@H]4[C@@H]1OC[C@H]4C)[C@@H]23` [Compound H, Neostenine-ether], the “cough episodes (result in words)” value in test [1] (guinea pig) was “marked reduction of cough episodes”. Moreover, the “rank order of antitussive potency” value in test [1] is on record as “A=D>C≈F≈H≈B”. In addition, the “% Cough Episode” value in test [1] (setting [12]) is listed as 54.4 ± 10.6 (ip) %.

For the compound Neostenine-acid [Compound G], the “% Cough Episode” value in test [1] (setting [12]) is recorded as 104.5 ± 20.4 (ip) %.

`CC[C@@H]1[C@H]2CCCCN3[C@@H]2[C@@H](C[C@H]3[C@@H]2C[C@H](C)C(=O)O2)[C@H]2[C@@H]1OC(=O)[C@H]2C` [Compound C, Tuberostemonine H]: the “cough episodes (result in words)” value in [1] (guinea pig) is on record as “marked reduction of cough episodes”. For the same compound, the “rank order of antitussive potency” value in [1] is reported as “A=D>C≈F≈H≈B”. Also, in test [1] (setting [12]), the “% Cough Episode” value was 50.7 ± 16.6 (ip) %.

On to `CC[C@@H]1[C@@H]2CCCCN3[C@@H]2[C@@H](C[C@H]3[C@@H]2C[C@H](C)C(=O)O2)[C@H]2[C@@H]1OC(=O)[C@H]2C` [Compound B, Tuberostemonine J], for which the “cough episodes (result in words)” value in test [1] (guinea pig) is reported as “marked reduction of cough episodes”. Further, in test [1], the “rank order of antitussive potency” value is reported as “A=D>C≈F≈H≈B”. The “% Cough Episode” value in test [1] (setting [12]) is on record as 76.3 ± 14.7 (ip) %.

With `CC[C@@H]1[C@H]2CCCCN3CC[C@@H]([C@H]4[C@@H]1OC(=O)[C@H]4C)[C@@H]23` [Compound D, Neostenine], the “cough episodes (result in words)” value in [1] (guinea pig) is reported as “significantly inhibited cough episodes in a dose-dependent manner”. Besides, the “rank order of antitussive potency” value in [1] was “A=D>C≈F≈H≈B”. Besides, the “% Cough Episode” value in test [1] (setting [12]) is given as 29.9 ± 8.3 (ip) %.

Take Neostenine-diol [Compound F]: in [1] (guinea pig), the “cough episodes (result in words)” value is given as “marked reduction of cough episodes”. Further, the “rank order of antitussive potency” value in test [1] is listed as “A=D>C≈F≈H≈B”. Also, in test [1] (setting [12]), the “% Cough Episode” value was 62.2 ± 10.8 (ip) %.
